Patent US7550485B2, “Substituted N-heterocycle derivatives and methods of their use” (Wyeth, priority 2003, dated 2009)
Structures can show the parent of a compound that is named as a salt.

Molecular target: T1, hNET (Homo sapiens, UniProt P23975)
T1 construct: expressed in transfected cells
Assay: Norepinephrine (NE) uptake assay in MDCK-Net6 cells stably transfected with human hNET
Format: cell-based
Settings: MDCK-Net6, 1 μM test compound, [3H]NE uptake
Experimental: MDCK-Net6 cells, stably transfected with human hNET (Pacholczyk, T., R. D. Blakely, and S. G. Amara, Nature, 1991, 350(6316): p. 350-4) were cultured in growth medium containing high glucose DMEM (Gibco, Cat. No. 11995), 10% FBS (dialyzed, heat-inactivated, US Bio-Technologies, Lot FBD1129HI) and 500 μg/ml G418 (Gibco, Cat. No. 10131). Cells were plated at 300,000/T75 flask and cells were split twice weekly. The JAR cell line (human placental choriocarcinoma) was purchased from ATCC (Cat. No. HTB-144). The cells were cultured in growth medium containing RPMI 1640 (Gibco, Cat. No. 72400), 10% FBS (Irvine, Cat. No. 3000), 1% sodium pyruvate (Gibco, Cat. No. 1136) and 0.25% glucose. Cells were plated at 250,000 cells/T75 flask and split twice weekly. For all assays, cells were plated in Wallac 96-well sterile plates (PerkinElmer, Cat. No. 3983498).
Norepinephrine (NE) Uptake Assay
On day 1, cells were plated at 3,000 cells/well in growth medium and maintained in a cell incubator (37° C., 5% CO2). On day 2, growth medium was replaced with 200 μl of assay buffer (25 mM HEPES; 120 mM NaCl; 5 mM KCl; 2.5 mM CaCl2; 1.2 mM MgSO4; 2 mg/ml glucose (pH 7.4, 37° C.)) containing 0.2 mg/ml ascorbic acid and 10 μM pargyline. Plates containing cells with […] of assay buffer were equilibrated for 10 minutes at 37° C. prior to addition of compounds. A stock solution of desipramine was prepared in DMSO (10 mM) and delivered to triplicate wells containing cells for a final test concentration of 1 μM. Data from these wells were used to define non-specific NE uptake (minimum NE uptake). Test compounds were prepared in DMSO (10 mM) and diluted in assay buffer according to test range (1 to 10,000 nM). Twenty-five microliters of assay buffer (maximum NE uptake) or test compound were added directly to triplicate wells containing cells in 200 μl of assay buffer. The cells in assay buffer with test compounds were incubated for 20 minutes at 37° C. To initiate the NE uptake, [^3H]NE diluted in assay buffer (120 nM final assay concentration) was delivered in 25 μl aliquots to each well and the plates were incubated for 5 minutes (37° C.). The reaction was terminated by decanting the supernatant from the plate. The plates containing cells were washed twice with 200 μl assay buffer (37° C.) to remove free radioligand. The plates were then inverted, left to dry for 2 minutes, then reinverted and air-dried for an additional 10 minutes. The cells were lysed in 25 μl of 0.25 N NaOH solution (4° C.), placed on a shake table and vigorously shaken for 5 minutes. After cell lysis, 75 μl of scintillation cocktail was added to each well and the plates were sealed with film tape. The plates were returned to the shake table and vigorously shaken for a minimum of 10 minutes to ensure adequate partitioning of organic and aqueous solutions. The plates were counted in a Wallac Microbeta counter (PerkinElmer) to collect the raw cpm data.
For each experiment, a data stream of cpm values collected from the Wallac Microbeta counter was downloaded to a Microsoft Excel statistical application program. Calculations of EC50 values were made using the transformed-both-sides logistic dose response program written by Wyeth Biometrics Department. The statistical program uses mean cpm values from wells representing maximum binding or uptake (assay buffer) and mean cpm values from wells representing minimum binding or uptake ((1 μM desipramine (hNET) or 1 μM paroxetine (hSERT)). Estimation of the EC50 value was completed on a log scale and the line was fit between the maximum and minimum binding or uptake values. All graphic data representation was generated by normalizing each data point to a mean percent based on the maximum and minimum binding or uptake values. The EC50 values reported from multiple experiments were calculated by pooling the raw data from each experiment and analyzing the pooled data as one experiment.

T1 sequence (P23975 whole entry): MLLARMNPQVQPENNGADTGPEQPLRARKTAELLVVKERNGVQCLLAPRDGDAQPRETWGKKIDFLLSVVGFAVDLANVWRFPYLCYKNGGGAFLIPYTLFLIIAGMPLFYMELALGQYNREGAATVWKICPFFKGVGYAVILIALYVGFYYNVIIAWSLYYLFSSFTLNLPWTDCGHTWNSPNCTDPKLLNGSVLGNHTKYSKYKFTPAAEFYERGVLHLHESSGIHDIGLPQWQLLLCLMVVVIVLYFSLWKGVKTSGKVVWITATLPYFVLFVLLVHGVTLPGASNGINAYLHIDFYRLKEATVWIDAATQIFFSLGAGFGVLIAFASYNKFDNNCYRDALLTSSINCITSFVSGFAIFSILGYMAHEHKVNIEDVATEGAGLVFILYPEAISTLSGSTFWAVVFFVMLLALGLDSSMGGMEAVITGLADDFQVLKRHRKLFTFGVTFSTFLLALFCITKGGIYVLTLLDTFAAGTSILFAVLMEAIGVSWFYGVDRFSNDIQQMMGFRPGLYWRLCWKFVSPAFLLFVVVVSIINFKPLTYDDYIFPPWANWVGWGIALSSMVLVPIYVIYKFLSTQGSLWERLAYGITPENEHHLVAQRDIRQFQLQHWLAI

Q: `NC1CCN(CC(c2cccc(C(F)(F)F)c2)C2(O)CCCCC2)CC1` (stereo not drawn) [Example 39, 1-{2-(4-aminopiperidin-1-yl)-1-[3-(trifluoromethyl)phenyl]ethyl}cyclohexanol dihydrochloride] was tested. Which inhibition at 1 µM did it give?
A: Its inhibition at 1 µM is 56%.

Q: For `NC1CCN(CC(c2cccc3ccccc23)C2(O)CCC2)CC1` (stereo not drawn) [Example 43, 1-[2-(4-aminopiperidin-1-yl)-1-(1-naphthyl)ethyl]cyclobutanol dihydrochloride], which inhibition at 1 µM is on record?
A: The inhibition at 1 µM was 47%.

Q: How did the inhibition at 1 µM turn out when `CNC1CCN(CC(c2ccc3ccccc3c2)C2(O)CCCCC2)CC1` (stereo not drawn) [Example 49, 1-[2-[4-(methylamino)piperidin-1-yl]-1-(2-naphthyl)ethyl]cyclohexanol dihydrochloride] was run?
A: Its inhibition at 1 µM is 39%.

Q: `NC1CCN(CC(c2cccc3ccccc23)C2(O)CCCCC2)CC1` (stereo not drawn) [Example 54, 1-[2-(4-aminopiperidin-1-yl)-1-(1-naphthyl)ethyl]cyclohexanol dihydrochloride] was tested. Which inhibition at 1 µM did it give?
A: Its inhibition at 1 µM is 39%.

Q: With `CN[C@@H]1CCCN(CC(c2cccc(OC(F)(F)F)c2)C2(O)CCCCC2)C1` (stereo partly drawn) [Example 186, 1-[2-{(3R)-3-(methylamino)piperidin-1-yl]-1-[3-(trifluoromethoxy)phenyl]ethyl}cyclohexanol dihydrochloride] as the compound, how does the inhibition at 1 µM read?
A: Its inhibition at 1 µM is 50.4%.

Q: `N[C@@H]1CCCN(CC(c2cccc(OC(F)(F)F)c2)C2(O)CCCCC2)C1` (stereo partly drawn) [Example 187, 1-[2-{(3R)-3-aminopiperidin-1-yl]-1-[3-(trifluoromethoxy)phenyl]ethyl}cyclohexanol dihydrochloride] was tested. Which inhibition at 1 µM did it give?
A: Its inhibition at 1 µM is 62.3%.

Q: With `CN(C)[C@@H]1CCCN(CC(c2cccc(OC(F)(F)F)c2)C2(O)CCCCC2)C1` (stereo partly drawn) [Example 188, 1-{2-[(3R)-3-(dimethylamino)piperidin-1-yl]-1-[3-(trifluoromethoxy)phenyl]ethyl}cyclohexanol dihydrochloride] as the compound, how does the inhibition at 1 µM read?
A: Its inhibition at 1 µM is 17.6%.

Q: With `CN[C@H]1CCCN(CC(c2cccc(OC(F)(F)F)c2)C2(O)CCCCC2)C1` (stereo partly drawn) [Example 189, 1-{2-[(3S)-3-(methylamino)piperidin-1-yl]-1-[3-(trifluoromethoxy)phenyl]ethyl}cyclohexanol dihydrochloride] as the compound, how does the inhibition at 1 µM read?
A: The inhibition at 1 µM was 67.9%.

Q: For `N[C@H]1CCCN(CC(c2cccc(OC(F)(F)F)c2)C2(O)CCCCC2)C1` (stereo partly drawn) [Example 190, 1-{2-[(3S)-3-aminopiperidin-1-yl]-1-[3-(trifluoromethoxy)phenyl]ethyl}cyclohexanol dihydrochloride], which inhibition at 1 µM is on record?
A: The inhibition at 1 µM was 49.9%.

Q: How did the inhibition at 1 µM turn out when `CN(C)[C@H]1CCCN(CC(c2cccc(OC(F)(F)F)c2)C2(O)CCCCC2)C1` (stereo partly drawn) [Example 191, 1-{2-[(3S)-3-(dimethylamino)piperidin-1-yl]-1-[3-(trifluoromethoxy)phenyl]ethyl}cyclohexanol dihydrochloride] was run?
A: Its inhibition at 1 µM is 12.3%.

Q: How did the inhibition at 1 µM turn out when `CN[C@@H]1CCCN(CC(c2ccc(OCc3ccccc3)c(Cl)c2)C2(O)CCCCC2)C1` (stereo partly drawn) [Example 192, 1-{1-[4-(benzyloxy)-3-chlorophenyl]-2-[(3R)-3-(methylamino)piperidin-1-yl]ethyl}cyclohexanol dihydrochloride] was run?
A: Its inhibition at 1 µM is 88.5%.

Q: `N[C@@H]1CCCN(CC(c2ccc(OCc3ccccc3)c(Cl)c2)C2(O)CCCCC2)C1` (stereo partly drawn) [Example 193, 1-{2-[(3R)-3-aminopiperidin-1-yl]-1-[4-(benzyloxy)-3-chlorophenyl]ethyl}cyclohexanol dihydrochloride] was tested. Which inhibition at 1 µM did it give?
A: Its inhibition at 1 µM is 87.2%.

Q: For `CN(C)[C@@H]1CCCN(CC(c2ccc(OCc3ccccc3)c(Cl)c2)C2(O)CCCCC2)C1` (stereo partly drawn) [Example 194, 1-{1-[4-(benzyloxy)-3-chlorophenyl]-2-[(3R)-3-(dimethylamino)piperidin-1-yl]ethyl}cyclohexanol dihydrochloride], which inhibition at 1 µM is on record?
A: The inhibition at 1 µM was 81.1%.

Q: How did the inhibition at 1 µM turn out when `CN[C@H]1CCCN(CC(c2ccc(OCc3ccccc3)c(Cl)c2)C2(O)CCCCC2)C1` (stereo partly drawn) [Example 195, 1-{1-[4-(benzyloxy)-3-chlorophenyl]-2-[(3S)-3-(methylamino)piperidin-1-yl]ethyl}cyclohexanol dihydrochloride] was run?
A: The inhibition at 1 µM was 92%.

Q: With `N[C@H]1CCCN(CC(c2ccc(OCc3ccccc3)c(Cl)c2)C2(O)CCCCC2)C1` (stereo partly drawn) [Example 196, 1-{2-[(3S)-3-aminopiperidin-1-yl]-1-[4-(benzyloxy)-3-chlorophenyl]ethyl}cyclohexanol dihydrochloride] as the compound, how does the inhibition at 1 µM read?
A: The inhibition at 1 µM was 92.2%.

Q: With `CN(C)[C@H]1CCCN(CC(c2ccc(OCc3ccccc3)c(Cl)c2)C2(O)CCCCC2)C1` (stereo partly drawn) [Example 197, 1-{1-[4-(benzyloxy)-3-chlorophenyl]-2-[(3S)-3-(dimethylamino)piperidin-1-yl]ethyl}cyclohexanol dihydrochloride] as the compound, how does the inhibition at 1 µM read?
A: Its inhibition at 1 µM is 76%.

Q: Which inhibition at 1 µM does the source give for `CN[C@H]1CCN(CC(c2cccc(Cl)c2)C2(O)CCCCC2)C1` (stereo partly drawn) [Example 198, 1-1-{1-(3-chlorophenyl)-2-[(3S)-3-(methylamino)pyrrolidin-1-yl]ethyl}cyclohexanol dihydrochloride] here?
A: Its inhibition at 1 µM is 77.8%.

Q: With `CN(C)[C@H]1CCN(CC(c2cccc(Cl)c2)C2(O)CCCCC2)C1` (stereo partly drawn) [Example 199, 1-{1-(3-chlorophenyl)-2-[(3S)-3-(dimethylamino)pyrrolidin-1-yl]ethyl}cyclohexanol dihydrochloride] as the compound, how does the inhibition at 1 µM read?
A: The inhibition at 1 µM was 80.7%.

Q: Which inhibition at 1 µM does the source give for `CN[C@@H]1CCN(CC(c2cccc(Cl)c2)C2(O)CCCCC2)C1` (stereo partly drawn) [Example 200, 1-{1-(3-chlorophenyl)-2-[(3R)-3-(methylamino)pyrrolidin-1-yl]ethyl}cyclohexanol dihydrochloride] here?
A: Its inhibition at 1 µM is 54.1%.

Q: With `N[C@@H]1CCN(CC(c2cccc(Cl)c2)C2(O)CCCCC2)C1` (stereo partly drawn) [Example 201, 1-[2-[(3R)-3-aminopyrrolidin-1-yl]-1-(3-chlorophenyl)ethyl]cyclohexanol dihydrochloride] as the compound, how does the inhibition at 1 µM read?
A: Its inhibition at 1 µM is 37.5%.

Q: How did the inhibition at 1 µM turn out when `CN(C)[C@@H]1CCN(CC(c2cccc(Cl)c2)C2(O)CCCCC2)C1` (stereo partly drawn) [Example 202, 1-{1-(3-chlorophenyl)-2-[(3R)-3-(dimethylamino)pyrrolidin-1-yl]ethyl}cyclohexanol dihydrochloride] was run?
A: The inhibition at 1 µM was 74.3%.

Q: How did the inhibition at 1 µM turn out when `CN[C@H]1CCN(CC(c2ccc3ccccc3c2)C2(O)CCCCC2)C1` (stereo partly drawn) [Example 203, 1-[2-[(3S)-3-(methylamino)pyrrolidin-1-yl]-1-(2-naphthyl)ethyl]cyclohexanol dihydrochloride] was run?
A: Its inhibition at 1 µM is 59.2%.

Q: How did the inhibition at 1 µM turn out when `N[C@H]1CCN(CC(c2ccc3ccccc3c2)C2(O)CCCCC2)C1` (stereo partly drawn) [Example 204, 1-[2-[(3S)-3-aminopyrrolidin-1-yl]-1-(2-naphthyl)ethyl]cyclohexanol dihydrochloride] was run?
A: The inhibition at 1 µM was 70.4%.

Q: Which inhibition at 1 µM does the source give for `CN(C)[C@H]1CCN(CC(c2ccc3ccccc3c2)C2(O)CCCCC2)C1` (stereo partly drawn) [Example 205, 1-[2-[(3S)-3-(dimethylamino)pyrrolidin-1-yl]-1-(2-naphthyl)ethyl]cyclohexanol dihydrochloride] here?
A: Its inhibition at 1 µM is 39.5%.

Q: For `CN[C@H]1CCN(CC(c2cccc3ccccc23)C2(O)CCCCC2)C1` (stereo partly drawn) [Example 206, 1-[2-[(3S)-3-(methylamino)pyrrolidin-1-yl]-1-(1-naphthyl)ethyl]cyclohexanol dihydrochloride], which inhibition at 1 µM is on record?
A: The inhibition at 1 µM was 19.2%.

Q: Which inhibition at 1 µM does the source give for `N[C@H]1CCN(CC(c2cccc3ccccc23)C2(O)CCCCC2)C1` (stereo partly drawn) [Example 207, 1-[2-[(3S)-3-aminopyrrolidin-1-yl]-1-(1-naphthyl)ethyl]cyclohexanol dihydrochloride] here?
A: Its inhibition at 1 µM is 65.7%.

Q: For `CN[C@H]1CCN(CC(c2ccc(OCc3ccccc3)c(Cl)c2)C2(O)CCCCC2)C1` (stereo partly drawn) [Example 209, 1-{1-[4-(benzyloxy)-3-chlorophenyl]-2-[(3S)-3-(methylamino)pyrrolidin-1-yl]ethyl}cyclohexanol dihydrochloride], which inhibition at 1 µM is on record?
A: Its inhibition at 1 µM is 98.5%.
